Test results from PMC11124822, “Discovery and Anticancer Screening of Novel Oxindole-Based Derivative Bearing Pyridyl Group as Potent and Selective Dual FLT3/CDK2 Kinase Inhibitor” (Pharmaceuticals, 2024).

Experiments:
CCRF-CEM = assay: NCI-60 antiproliferative screen (SRB); format: cell-based, human; conditions: Homo sapiens; 10 µM single dose, 48 h; CCRF-CEM (Leukemia); read-out: Growth inhibition (%)
HL-60(TB) = assay: NCI-60 antiproliferative screen (SRB); format: cell-based, human; conditions: Homo sapiens; 10 µM single dose, 48 h; HL-60(TB) (Leukemia); read-out: Growth inhibition (%)
K-562 = assay: NCI-60 antiproliferative screen (SRB); format: cell-based, human; conditions: Homo sapiens, K562; 10 µM single dose, 48 h; K-562 (Leukemia); read-out: Growth inhibition (%)
MOLT-4 = assay: NCI-60 antiproliferative screen (SRB); format: cell-based; conditions: Homo sapiens; 10 µM single dose, 48 h; MOLT-4 (Leukemia); read-out: Growth inhibition (%)
RPMI-8226 = assay: NCI-60 antiproliferative screen (SRB); format: cell-based, human; conditions: Homo sapiens; 10 µM single dose, 48 h; RPMI-8226 (Leukemia); read-out: Growth inhibition (%)
A549/ATCC = assay: NCI-60 antiproliferative screen (SRB); format: cell-based, human; conditions: Homo sapiens; 10 µM single dose, 48 h; A549/ATCC (NSCLC); read-out: Growth inhibition (%)
NCI-H522 = assay: NCI-60 antiproliferative screen (SRB); format: cell-based, human; conditions: Homo sapiens; 10 µM single dose, 48 h; NCI-H522 (NSCLC); read-out: Growth inhibition (%)
COLO 205 = assay: NCI-60 antiproliferative screen (SRB); format: cell-based, human; conditions: Homo sapiens; 10 µM single dose, 48 h; COLO 205 (Colon); read-out: Growth inhibition (%)
HCT-116 = assay: NCI-60 antiproliferative screen (SRB); format: cell-based, human; conditions: Homo sapiens; 10 µM single dose, 48 h; HCT-116 (Colon); read-out: Growth inhibition (%)
HCT-15 = assay: NCI-60 antiproliferative screen (SRB); format: cell-based, human; conditions: Homo sapiens; 10 µM single dose, 48 h; HCT-15 (Colon); read-out: Growth inhibition (%)
KM12 = assay: NCI-60 antiproliferative screen (SRB); format: cell-based, human; conditions: Homo sapiens; 10 µM single dose, 48 h; KM12 (Colon); read-out: Growth inhibition (%)
SF-295 = assay: NCI-60 antiproliferative screen (SRB); format: cell-based, human; conditions: Homo sapiens; 10 µM single dose, 48 h; SF-295 (CNS); read-out: Growth inhibition (%)
SNB-19 = assay: NCI-60 antiproliferative screen (SRB); format: cell-based, human; conditions: Homo sapiens; 10 µM single dose, 48 h; SNB-19 (CNS); read-out: Growth inhibition (%)
M14 = assay: NCI-60 antiproliferative screen (SRB); format: cell-based, human; conditions: Homo sapiens; 10 µM single dose, 48 h; M14 (Melanoma); read-out: Growth inhibition (%)
SK-MEL-2 = assay: NCI-60 antiproliferative screen (SRB); format: cell-based, human; conditions: Homo sapiens; 10 µM single dose, 48 h; SK-MEL-2 (Melanoma); read-out: Growth inhibition (%)
SK-MEL-28 = assay: NCI-60 antiproliferative screen (SRB); format: cell-based, human; conditions: Homo sapiens; 10 µM single dose, 48 h; SK-MEL-28 (Melanoma); read-out: Growth inhibition (%)
UACC-257 = assay: NCI-60 antiproliferative screen (SRB); format: cell-based, human; conditions: Homo sapiens; 10 µM single dose, 48 h; UACC-257 (Melanoma); read-out: Growth inhibition (%)
UACC-62 = assay: NCI-60 antiproliferative screen (SRB); format: cell-based, human; conditions: Homo sapiens; 10 µM single dose, 48 h; UACC-62 (Melanoma); read-out: Growth inhibition (%)
OVCAR-5 = assay: NCI-60 antiproliferative screen (SRB); format: cell-based, human; conditions: Homo sapiens; 10 µM single dose, 48 h; OVCAR-5 (Ovarian); read-out: Growth inhibition (%)
OVCAR-8 = assay: NCI-60 antiproliferative screen (SRB); format: cell-based, human; conditions: Homo sapiens; 10 µM single dose, 48 h; OVCAR-8 (Ovarian); read-out: Growth inhibition (%)
NCI/ADR-RES = assay: NCI-60 antiproliferative screen (SRB); format: cell-based, human; conditions: Homo sapiens; 10 µM single dose, 48 h; NCI/ADR-RES (Ovarian); read-out: Growth inhibition (%)
SK-OV-3 = assay: NCI-60 antiproliferative screen (SRB); format: cell-based, human; conditions: Homo sapiens; 10 µM single dose, 48 h; SK-OV-3 (Ovarian); read-out: Growth inhibition (%)
A498 = assay: NCI-60 antiproliferative screen (SRB); format: cell-based, human; conditions: Homo sapiens; 10 µM single dose, 48 h; A498 (Renal); read-out: Growth inhibition (%)
CAKI-1 = assay: NCI-60 antiproliferative screen (SRB); format: cell-based, human; conditions: Homo sapiens; 10 µM single dose, 48 h; CAKI-1 (Renal); read-out: Growth inhibition (%)
SN12C = assay: NCI-60 antiproliferative screen (SRB); format: cell-based, human; conditions: Homo sapiens; 10 µM single dose, 48 h; SN12C (Renal); read-out: Growth inhibition (%)
UO-31 = assay: NCI-60 antiproliferative screen (SRB); format: cell-based, human; conditions: Homo sapiens; 10 µM single dose, 48 h; UO-31 (Renal); read-out: Growth inhibition (%)
PC-3 = assay: NCI-60 antiproliferative screen (SRB); format: cell-based, human; conditions: Homo sapiens; 10 µM single dose, 48 h; PC-3 (Prostate); read-out: Growth inhibition (%)
MDA-MB-468 = assay: NCI-60 antiproliferative screen (SRB); format: cell-based, human; conditions: Homo sapiens; 10 µM single dose, 48 h; MDA-MB-468 (Breast); read-out: Growth inhibition (%)
OVCAR-4 = assay: NCI-60 antiproliferative screen (SRB); conditions: Homo sapiens, OVCAR-4, 48 h, read-out: Growth inhibition (%)
Experimental: Anticancer activity was tested against 60 cancer cell lines (NCI-60) after 48h treatments with a single dosage of 10 μM of compounds by using sulforhodamine B assay [39] on the traditional 96-well platform. […] The human cancer cell lines of the NCI-60 panel are grown in RPMI 1640 medium supplemented with 5% FBS (fetal bovine serum) and 2 mM L-glutamine. […] For further analysis of promising compounds, five dose screens were performed against the NCI-60 panel. Drug treatments are performed in 5 doses using 10-fold or ½ log dose dilutions.

OVCAR-3 = assay: NCI-60 antiproliferative screen (SRB); format: cell-based, human; conditions: Homo sapiens; 10 µM single dose, 48 h; OVCAR-3 (Ovarian); read-out: Growth inhibition (%)

Row | Compound | inhibition at 10 µM (CCRF-CEM) | inhibition at 10 µM (HL-60(TB)) | inhibition at 10 µM (K-562) | inhibition at 10 µM (MOLT-4) | inhibition at 10 µM (RPMI-8226) | inhibition at 10 µM (A549/ATCC) | inhibition at 10 µM (NCI-H522) | inhibition at 10 µM (COLO 205) | inhibition at 10 µM (HCT-116) | inhibition at 10 µM (HCT-15) | inhibition at 10 µM (KM12) | inhibition at 10 µM (SF-295) | inhibition at 10 µM (SNB-19) | inhibition at 10 µM (M14) | inhibition at 10 µM (SK-MEL-28) | inhibition at 10 µM (UACC-257) | inhibition at 10 µM (UACC-62) | inhibition at 10 µM (OVCAR-5) | inhibition at 10 µM (OVCAR-8) | inhibition at 10 µM (NCI/ADR-RES) | further results
1 | O=C1Nc2ccccc2C1=Cc1ccc(OCc2ccccc2)cc1 (mixture of isomers) [Compound 5a, (E/Z)-3-[4-(Benzyloxy)benzylidene] indolin-2-one] | 0.52% | 11.5% | 11.8% | 2.73% | 1.13% | -3.26% | 2.18% | -13.1% | 4.24% | 0.04% | -3.15% | -6.78% | 2.17% | 5.67% | -7.21% | -9.45% | 6.11% | -2.24% | 2.34% | -0.55% | inhibition at 10 µM (SK-MEL-2): -4.59%; inhibition at 10 µM (SK-OV-3): -5.78%; inhibition at 10 µM (A498): 7.9%; inhibition at 10 µM (CAKI-1): 2%; inhibition at 10 µM (SN12C): 6.16%; inhibition at 10 µM (UO-31): 14.9%; inhibition at 10 µM (PC-3): 5.85%; inhibition at 10 µM (MDA-MB-468): 0.75%; melting point: 220 to 223 °C; inhibition at 10 µM (OVCAR-4): -7.99%
2 | O=C1Nc2ccc(F)cc2C1=Cc1ccc(OCc2ccccc2)cc1 (mixture of isomers) [Compound 5b, (E/Z)-3-[4-(Benzyloxy)benzylidene]-5-fluoroindolin-2-one] | -10.8% | 7.92% | 7.19% | -0.05% | 2.59% | 3.9% | 5.91% | 1.92% | 4.15% | 3.51% | 2.42% | 1.11% | 1.26% | 3.39% | 2.92% | 2.53% | 4.38% | -0.99% | -0.84% | 0.01% | inhibition at 10 µM (SK-OV-3): 0.16%; inhibition at 10 µM (CAKI-1): 8.23%; inhibition at 10 µM (SN12C): 0.27%; inhibition at 10 µM (UO-31): 2.55%; inhibition at 10 µM (PC-3): -2.77%; inhibition at 10 µM (MDA-MB-468): 1.56%; melting point: 244 to 248 °C; inhibition at 10 µM (OVCAR-4): 0.82%
3 | O=C1Nc2ccc(Cl)cc2C1=Cc1ccc(OCc2ccccc2)cc1 (mixture of isomers) [Compound 5c, (E/Z)-3-[4-(Benzyloxy)benzylidene]-5-chloroindolin-2-one] | 0.21% | -3.22% | -0.34% | 3.28% | -3.85% | -0.99% | 2.1% | -6.62% | 3.41% | -4.25% | -1.02% | -11.1% | -1.05% | 7.34% | -8.75% | -6.58% | 5.69% | -2.92% | -0.47% | 1.88% | inhibition at 10 µM (SK-MEL-2): -0.35%; inhibition at 10 µM (SK-OV-3): -1.7%; inhibition at 10 µM (A498): -2.37%; inhibition at 10 µM (CAKI-1): 13.4%; inhibition at 10 µM (SN12C): 0.7%; inhibition at 10 µM (UO-31): 23.9%; inhibition at 10 µM (PC-3): 12.9%; inhibition at 10 µM (MDA-MB-468): -0.96%; melting point: 214 to 216 °C; inhibition at 10 µM (OVCAR-4): -7.18%
4 | O=C1Nc2ccc(F)cc2C1=Cc1ccc(OCc2cccnc2)cc1 (mixture of isomers) [Compound 5j, (E/Z)-5-Fluoro-3-[4-(pyridin-3-ylmethoxy)benzylidene]indolin-2-one] | 75% | 81.7% | 86.1% | 88.5% | 61.2% | 39.4% | 89.5% | 46.1% | 84.7% | 84.8% | 97.3% | 54.8% | 62.1% | 67.1% | 28.2% | 39.8% | 57.8% | -11.2% | 65.1% | 85.6% | inhibition at 10 µM (SK-MEL-2): 50.4%; inhibition at 10 µM (OVCAR-3): 9.05%; inhibition at 10 µM (SK-OV-3): 13.2%; inhibition at 10 µM (A498): -29.1%; inhibition at 10 µM (CAKI-1): 67.6%; inhibition at 10 µM (SN12C): 46.1%; inhibition at 10 µM (PC-3): 43.6%; inhibition at 10 µM (MDA-MB-468): 58.5%; melting point: 187 to 189 °C; inhibition at 10 µM (OVCAR-4): 47.2%
5 | O=C1Nc2ccc(Cl)cc2C1=Cc1ccc(OCc2cccnc2)cc1 (mixture of isomers) [Compound 5k, (E/Z)-5-Chloro-3-[4-(pyridin-3-ylmethoxy)benzylidene] indolin-2-one] | 36.4% | 14.8% | 38.8% | 52.6% | 29.7% | 16.1% | 19.8% | 5.66% | 34.6% | 46.5% | 52.8% | 4.51% | 22.9% | 12.2% | -20.5% | 2.42% | 23.3% | -34.5% | 23.4% | 26% | inhibition at 10 µM (SK-MEL-2): 0.36%; inhibition at 10 µM (OVCAR-3): -10.9%; inhibition at 10 µM (SK-OV-3): 5.36%; inhibition at 10 µM (A498): -31.6%; inhibition at 10 µM (CAKI-1): 51%; inhibition at 10 µM (SN12C): 9.17%; inhibition at 10 µM (PC-3): 24.3%; inhibition at 10 µM (MDA-MB-468): 12.5%; melting point: 199 to 201 °C; inhibition at 10 µM (OVCAR-4): 21.2%
